Columns and labels:
Experiment in all cases: cells
Assay type in all cases: functional, cell-based
Conditions in all cases: Homo sapiens
COLO-800 = system: COLO-800;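 further: growth inhibition of COLO-800 cells, read out with a cell viability assay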
Description: SANGER: Inhibition of human COLO-800 cell growth in a cell viability assay.

COLO-824 = system: COLO-824
Description: SANGER: Inhibition of human COLO-824 cell growth in a cell viability assay.

COLO-829 = system: COLO-829
Description: SANGER: Inhibition of human COLO-829 cell growth in a cell viability assay.

CTB-1 = system: CTB-1
Description: SANGER: Inhibition of human CTB-1 cell growth in a cell viability assay.

CTV-1 = system: CTV-1;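 further: growth inhibition of the cell line, read out with a cell viability assay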
Description: SANGER: Inhibition of human CTV-1 cell growth in a cell viability assay.

CW-2 = system: CW-2;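 further: growth inhibition of CW-2 cells, read out by a cell viability assay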
Description: SANGER: Inhibition of human CW-2 cell growth in a cell viability assay.

D-502MG = system: D-502MG
Description: SANGER: Inhibition of human D-502MG cell growth in a cell viability assay.

DJM-1 = system: DJM-1;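 further: growth inhibition of human DJM-1 cells, read out by a cell viability assay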
Description: SANGER: Inhibition of human DJM-1 cell growth in a cell viability assay.

DMS-79 = system: DMS-79;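 further: growth inhibition measured with a cell viability assay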
Description: SANGER: Inhibition of human DMS-79 cell growth in a cell viability assay.

DU-4475 = system: DU-4475
Description: SANGER: Inhibition of human DU-4475 cell growth in a cell viability assay.

ES5 = system: ES5;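 further: growth inhibition of human ES5 cells, read out by a cell viability assay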
Description: SANGER: Inhibition of human ES5 cell growth in a cell viability assay.

ES7 = system: ES7;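 further: growth inhibition of cultured human ES7 cells, read out as cell viability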
Description: SANGER: Inhibition of human ES7 cell growth in a cell viability assay.

ETK-1 = system: ETK-1;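 further: growth inhibition of human ETK-1 cells, read out with a cell viability assay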
Description: SANGER: Inhibition of human ETK-1 cell growth in a cell viability assay.

EW-3 = system: EW-3;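 further: cell viability assay read-out, IC50 reflects inhibition of growth of the EW-3 cells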
Description: SANGER: Inhibition of human EW-3 cell growth in a cell viability assay.

HAL-01 = system: HAL-01;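 further: growth inhibition of human HAL-01 cells, read out with a cell viability assay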
Description: SANGER: Inhibition of human HAL-01 cell growth in a cell viability assay.

HCC2218 = system: HCC2218;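 further: cell viability assay read-out, with IC50 given as the concentration that inhibits growth of the cell line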
Description: SANGER: Inhibition of human HCC2218 cell growth in a cell viability assay.

HT = system: HT
Description: SANGER: Inhibition of human HT cell growth in a cell viability assay.

IST-MEL1 = system: IST-MEL1;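 further: growth inhibition of the cell line, read out with a cell viability assay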
Description: SANGER: Inhibition of human IST-MEL1 cell growth in a cell viability assay.

K562 = system: K562
Description: SANGER: Inhibition of human K-562 cell growth in a cell viability assay.

KARPAS-299 = system: KARPAS-299
Description: SANGER: Inhibition of human KARPAS-299 cell growth in a cell viability assay.

KG-1 = system: KG-1;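 further: growth inhibition of KG-1 cells, read out by a cell viability assay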
Description: SANGER: Inhibition of human KG-1 cell growth in a cell viability assay.

KGN = system: KGN;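 further: growth inhibition of KGN cells, read out with a cell viability assay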
Description: SANGER: Inhibition of human KGN cell growth in a cell viability assay.

LB2241-RCC = system: LB2241-RCC;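 further: cell viability assay measuring how strongly the cultured human renal carcinoma line is prevented from growing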
Description: SANGER: Inhibition of human LB2241-RCC cell growth in a cell viability assay.

LB771-HNC = system: LB771-HNC;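 further: growth inhibition of LB771-HNC human cells, read out with a cell viability assay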
Description: SANGER: Inhibition of human LB771-HNC cell growth in a cell viability assay.

LC-2-ad = system: LC-2-ad;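 further: growth inhibition of human LC-2-ad cells, read out with a cell viability assay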
Description: SANGER: Inhibition of human LC-2-ad cell growth in a cell viability assay.

LOX IMVI = system: LOX IMVI
Description: SANGER: Inhibition of human LOXIMVI cell growth in a cell viability assay.

LS-513 = system: LS-513
Description: SANGER: Inhibition of human LS-513 cell growth in a cell viability assay.

LU-139 = system: LU-139
Description: SANGER: Inhibition of human LU-139 cell growth in a cell viability assay.

LXF-289 cell line = system: LXF-289 cell line
Description: SANGER: Inhibition of human LXF-289 cell growth in a cell viability assay.

MFH-ino = system: MFH-ino;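 further: growth inhibition of human MFH-ino cells, read out by a cell viability assay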
Description: SANGER: Inhibition of human MFH-ino cell growth in a cell viability assay.

MFM-223 = system: MFM-223
Description: SANGER: Inhibition of human MFM-223 cell growth in a cell viability assay.

MPP-89 = system: MPP-89;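 further: growth inhibition of human MPP-89 cells, read out with a cell viability assay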
Description: SANGER: Inhibition of human MPP-89 cell growth in a cell viability assay.

NB6 = system: NB6;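 further: growth inhibition of NB6 cells, read out by a cell viability assay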
Description: SANGER: Inhibition of human NB6 cell growth in a cell viability assay.

NCI-H1092 = system: NCI-H1092;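 further: cell growth inhibition measured with a cell viability assay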
Description: SANGER: Inhibition of human NCI-H1092 cell growth in a cell viability assay.

NCI-H2126 = system: NCI-H2126;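 further: growth inhibition of the cancer cell line, determined with a cell viability readout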
Description: SANGER: Inhibition of human NCI-H2126 cell growth in a cell viability assay.

NCI-H226 = system: NCI-H226;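 further: cell viability read-out used to gauge growth inhibition of the cells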
Description: SANGER: Inhibition of human NCI-H226 cell growth in a cell viability assay.

NCI-H446 = system: NCI-H446;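 further: growth inhibition of NCI-H446 cells determined by a cell viability assay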
Description: SANGER: Inhibition of human NCI-H446 cell growth in a cell viability assay.

NCI-H510A = system: NCI-H510A;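 further: growth inhibition of NCI-H510A cells, read out with a cell viability assay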
Description: SANGER: Inhibition of human NCI-H510A cell growth in a cell viability assay.

NCI-H69 = system: NCI-H69;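 further: growth inhibition of the cell line, read out with a cell viability assay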
Description: SANGER: Inhibition of human NCI-H69 cell growth in a cell viability assay.

NCI-H82 = system: NCI-H82;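 further: growth inhibition of NCI-H82 cells, measured with a cell viability readout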
Description: SANGER: Inhibition of human NCI-H82 cell growth in a cell viability assay.

NKM-1 = system: NKM-1;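 further: growth inhibition of NKM-1 cells, read out with a cell viability assay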
Description: SANGER: Inhibition of human NKM-1 cell growth in a cell viability assay.

NOMO-1 = system: NOMO-1;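 further: growth inhibition of human NOMO-1 cells measured by a cell viability assay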
Description: SANGER: Inhibition of human NOMO-1 cell growth in a cell viability assay.

NOS-1 = system: NOS-1;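 further: growth inhibition of the human NOS-1 cell line, read out with a cell viability assay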
Description: SANGER: Inhibition of human NOS-1 cell growth in a cell viability assay.

OS-RC-2 = system: OS-RC-2;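 further: growth inhibition of human OS-RC-2 cells, measured by a cell viability assay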
Description: SANGER: Inhibition of human OS-RC-2 cell growth in a cell viability assay.

PSN1 = system: PSN1;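 further: suppression of growth of human PSN1 cells, read out by a cell viability assay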
Description: SANGER: Inhibition of human PSN1 cell growth in a cell viability assay.

RXF 393 = system: RXF 393;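 further: growth inhibition of human RXF 393 cells, read out with a cell viability assay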
Description: SANGER: Inhibition of human RXF393 cell growth in a cell viability assay.

SCH = system: SCH;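 further: growth inhibition of human SCH cells, read out in a cell viability assay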
Description: SANGER: Inhibition of human SCH cell growth in a cell viability assay.

SK-MEL-2 = system: SK-MEL-2;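 further: growth inhibition of human SK-MEL-2 cells measured with a cell viability assay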
Description: SANGER: Inhibition of human SK-MEL-2 cell growth in a cell viability assay.

SK-UT-1 = system: SK-UT-1;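 further: growth inhibition of SK-UT-1 cells, measured by a cell viability assay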
Description: SANGER: Inhibition of human SK-UT-1 cell growth in a cell viability assay.

SW684 = system: SW684;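 further: growth inhibition of human SW684 cells, measured by a cell viability assay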
Description: SANGER: Inhibition of human SW684 cell growth in a cell viability assay.

SW872 = system: SW872;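 further: growth inhibition of SW872 cells, read out by a viability assay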
Description: SANGER: Inhibition of human SW872 cell growth in a cell viability assay.

SW 954 = system: SW 954;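 further: growth inhibition of SW954 human cancer cells, read out as cell viability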
Description: SANGER: Inhibition of human SW954 cell growth in a cell viability assay.

TE-1 = system: TE-1;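 further: growth inhibition of the human TE-1 cell line, read out with a cell viability assay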
Description: SANGER: Inhibition of human TE-1 cell growth in a cell viability assay.

A3-KAW = system: A3-KAW;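 further: growth inhibition of human A3-KAW cells, read out with a cell viability assay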
Description: SANGER: Inhibition of human A3-KAW cell growth in a cell viability assay.

A4-Fuk = system: A4-Fuk;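 further: growth inhibition of A4-Fuk cells, read out by a cell viability assay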
Description: SANGER: Inhibition of human A4-Fuk cell growth in a cell viability assay.

ACN = system: ACN;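 further: growth inhibition of the human ACN cell line, read out via cell viability testing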
Description: SANGER: Inhibition of human ACN cell growth in a cell viability assay.

BB49-HNC = system: BB49-HNC;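 further: cell viability assay read-out, reported as inhibition of BB49-HNC cell growth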
Description: SANGER: Inhibition of human BB49-HNC cell growth in a cell viability assay.

BE-13 = system: BE-13;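 further: growth inhibition of human BE-13 cells, measured with a cell viability assay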
Description: SANGER: Inhibition of human BE-13 cell growth in a cell viability assay.

BV-173 = system: BV-173
Description: SANGER: Inhibition of human BV-173 cell growth in a cell viability assay.

TE-11 = system: TE-11;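 further: growth inhibition of human TE-11 cells, read out by a cell viability assay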
Description: SANGER: Inhibition of human TE-11 cell growth in a cell viability assay.

TE-5 = system: TE-5;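 further: inhibition of cell growth, read out by a cell viability assay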
Description: SANGER: Inhibition of human TE-5 cell growth in a cell viability assay.

TE-8 = system: TE-8
Description: SANGER: Inhibition of human TE-8 cell growth in a cell viability assay.

TE-9 = system: TE-9
Description: SANGER: Inhibition of human TE-9 cell growth in a cell viability assay.

TGBC1TKB = system: TGBC1TKB
Description: SANGER: Inhibition of human TGBC1TKB cell growth in a cell viability assay.

VA-ES-BJ = system: VA-ES-BJ
Description: SANGER: Inhibition of human VA-ES-BJ cell growth in a cell viability assay.

no-10 = system: no-10
Description: SANGER: Inhibition of human no-10 cell growth in a cell viability assay.

Compound `Cc1nc(Nc2ncc(C(=O)Nc3c(C)cccc3Cl)s2)cc(N2CCN(CCO)CC2)n1` [DASATINIB] has an IC50 (COLO-800) greater than 1280 nM, an IC50 (COLO-824) greater than 1280 nM and an IC50 (COLO-829) of 122 nM. It also gave an IC50 (CTB-1) greater than 1280 nM, an IC50 (CTV-1) of less than 5 nM and an IC50 (CW-2) greater than 1280 nM. The IC50 (D-502MG) was 1230 nM, the IC50 (DJM-1) was greater than 1280 nM and the IC50 (DMS-79) was greater than 1280 nM. For the same compound, the IC50 (DU-4475) was greater than 1280 nM, the IC50 (ES5) was greater than 1280 nM and the IC50 (ES7) was greater than 1280 nM. It also gave an IC50 (ETK-1) of 28.3 nM, an IC50 (EW-3) greater than 1280 nM and an IC50 (HAL-01) greater than 1280 nM. For the same compound, the IC50 (HCC2218) was greater than 1280 nM, the IC50 (HT) was greater than 1280 nM and the IC50 (IST-MEL1) was 135 nM. It also gave an IC50 (K562) of less than 5 nM, an IC50 (KARPAS-299) greater than 1280 nM and an IC50 (KG-1) greater than 1280 nM. The IC50 (KGN) was 19.4 nM, the IC50 (LB2241-RCC) was greater than 1280 nM and the IC50 (LB771-HNC) was greater than 1280 nM. It also gave an IC50 (LC-2-ad) of 25.9 nM, an IC50 (LOX IMVI) of 315 nM and an IC50 (LS-513) greater than 1280 nM. The IC50 (LU-139) was greater than 1280 nM, the IC50 (LXF-289 cell line) was 39.6 nM and the IC50 (MFH-ino) was 47.2 nM. It also gave an IC50 (MFM-223) greater than 1280 nM, an IC50 (MPP-89) of 40.5 nM and an IC50 (NB6) greater than 1280 nM. It also gave an IC50 (NCI-H1092) greater than 1280 nM, an IC50 (NCI-H2126) greater than 1280 nM and an IC50 (NCI-H226) greater than 1280 nM. The IC50 (NCI-H446) was 628 nM, the IC50 (NCI-H510A) was greater than 1280 nM and the IC50 (NCI-H69) was greater than 1280 nM. It also gave an IC50 (NCI-H82) greater than 1280 nM, an IC50 (NKM-1) greater than 1280 nM and an IC50 (NOMO-1) greater than 1280 nM. It also gave an IC50 (NOS-1) of 6.13 nM, an IC50 (OS-RC-2) of 20.3 nM and an IC50 (PSN1) of 44.7 nM. It also gave an IC50 (RXF 393) of 23.6 nM, an IC50 (SCH) greater than 1280 nM and an IC50 (SK-MEL-2) greater than 1280 nM. The IC50 (SK-UT-1) was greater than 1280 nM, the IC50 (SW684) was 350 nM and the IC50 (SW872) was 41.6 nM. For the same compound, the IC50 (SW 954) was 29.3 nM, the IC50 (TE-1) was 105 nM and the IC50 (A3-KAW) was 985 nM. It also gave an IC50 (A4-Fuk) greater than 1280 nM, an IC50 (ACN) greater than 1280 nM and an IC50 (BB49-HNC) of 386 nM. The IC50 (BE-13) was greater than 1280 nM, the IC50 (BV-173) was less than 5 nM and the IC50 (TE-11) was 78.6 nM. It also gave an IC50 (TE-5) greater than 1280 nM, an IC50 (TE-8) of 15.8 nM and an IC50 (TE-9) of 875 nM. The IC50 (TGBC1TKB) was 61.6 nM, the IC50 (VA-ES-BJ) was 39 nM and the IC50 (no-10) was 319 nM.
Compound `Cc1[nH]c(/C=C2\C(=O)Nc3ccc(S(=O)(=O)Cc4c(Cl)cccc4Cl)cc32)c(C)c1C(=O)N1CCC[C@@H]1CN1CCCC1` [PHA-665752] has an IC50 (COLO-800) greater than 2000 nM, an IC50 (COLO-824) greater than 2000 nM and an IC50 (COLO-829) greater than 2000 nM. It also gave an IC50 (CTB-1) greater than 2000 nM, an IC50 (CTV-1) greater than 2000 nM and an IC50 (CW-2) greater than 2000 nM. The IC50 (D-502MG) was greater than 2000 nM, the IC50 (DJM-1) was greater than 2000 nM and the IC50 (DMS-79) was greater than 2000 nM. It also gave an IC50 (DU-4475) greater than 2000 nM, an IC50 (ES5) greater than 2000 nM and an IC50 (ES7) greater than 2000 nM. It also gave an IC50 (ETK-1) greater than 2000 nM, an IC50 (EW-3) greater than 2000 nM and an IC50 (HAL-01) greater than 2000 nM. It also gave an IC50 (HCC2218) greater than 2000 nM, an IC50 (HT) greater than 2000 nM and an IC50 (IST-MEL1) greater than 2000 nM. It also gave an IC50 (K562) greater than 2000 nM, an IC50 (KARPAS-299) greater than 2000 nM and an IC50 (KG-1) greater than 2000 nM. For the same compound, the IC50 (KGN) was greater than 2000 nM, the IC50 (LB2241-RCC) was 157 nM and the IC50 (LB771-HNC) was greater than 2000 nM. It also gave an IC50 (LC-2-ad) greater than 2000 nM, an IC50 (LOX IMVI) greater than 2000 nM and an IC50 (LS-513) greater than 2000 nM. The IC50 (LU-139) was greater than 2000 nM, the IC50 (LXF-289 cell line) was greater than 2000 nM and the IC50 (MFH-ino) was greater than 2000 nM. For the same compound, the IC50 (MFM-223) was greater than 2000 nM, the IC50 (MPP-89) was greater than 2000 nM and the IC50 (NB6) was greater than 2000 nM. The IC50 (NCI-H1092) was greater than 2000 nM, the IC50 (NCI-H2126) was greater than 2000 nM and the IC50 (NCI-H226) was greater than 2000 nM. The IC50 (NCI-H446) was greater than 2000 nM, the IC50 (NCI-H510A) was greater than 2000 nM and the IC50 (NCI-H69) was greater than 2000 nM. The IC50 (NCI-H82) was greater than 2000 nM, the IC50 (NKM-1) was greater than 2000 nM and the IC50 (NOMO-1) was greater than 2000 nM. It also gave an IC50 (NOS-1) greater than 2000 nM, an IC50 (OS-RC-2) greater than 2000 nM and an IC50 (PSN1) greater than 2000 nM. The IC50 (RXF 393) was greater than 2000 nM, the IC50 (SK-MEL-2) was greater than 2000 nM and the IC50 (SK-UT-1) was greater than 2000 nM. The IC50 (SW684) was greater than 2000 nM, the IC50 (SW872) was greater than 2000 nM and the IC50 (SW 954) was greater than 2000 nM. The IC50 (TE-1) was greater than 2000 nM, the IC50 (A3-KAW) was greater than 2000 nM and the IC50 (A4-Fuk) was greater than 2000 nM. The IC50 (ACN) was greater than 2000 nM, the IC50 (BB49-HNC) was greater than 2000 nM and the IC50 (BE-13) was greater than 2000 nM. The IC50 (BV-173) was greater than 2000 nM, the IC50 (TE-11) was greater than 2000 nM and the IC50 (TE-5) was greater than 2000 nM. It also gave an IC50 (TE-8) greater than 2000 nM, an IC50 (TE-9) greater than 2000 nM and an IC50 (TGBC1TKB) greater than 2000 nM. For the same compound, the IC50 (VA-ES-BJ) was greater than 2000 nM and the IC50 (no-10) was greater than 2000 nM.

Reference: ChEMBL document CHEMBL1201861, “Genomics of Drug Sensitity in Cancer screening data, Wellcome Trust Sanger Institute”
